{
  "source": "patent US6555586B2",
  "about": "(Wyeth, priority 1993, dated 2003)",
  "key": {"[1]": {"system": "monoamine oxidase", "settings": "cited from earlier work"}, "[2]": {"system": "obesity in non-depressed outpatients", "test": "Obesity Reduction Test: randomized double-blind comparison of venlafaxine and placebo capsules", "type": "in vivo, humans", "experimental": "A randomized double-blind comparison of venlafaxine and placebo capsules was tested as a treatment for obesity in non-depressed outpatients. […] Each participant in the comparison weighed more than 20%, but less than 100%, above the mean value for sex, height and bone structure according to the 1983 Metropolitan Height and Weight Table. The women in the comparison of childbearing potential received a negative pregnancy test result and agreed to use medically acceptable forms of contraception throughout the period covered by the comparison.\nSubsequently the dose was increased from 50 mg/day to 150 mg/day through study day 14. On study day 15 the dose was increased to 225 mg/day (3 tablets 3 times a day) and this dose was continued for the remainder of the 70 day study. The patients in both groups were also given instructions to decrease their food intake by 20% and to increase their exercise by the same amount. These directives were given to standardize dietary instructions and to try to prevent patients from starting “crash” diets or exercise programs. A specific diet was not prescribed.\nComparisons within groups were performed on changes from baseline weight and body mass index. Body mass index was computed according to the following formula: [formula]"}, "[3]": {"system": "norepinephrine uptake", "settings": "cited from earlier work"}, "[4]": {"system": "adrenergic receptors", "settings": "in vitro; cited from earlier work"}, "[5]": {"system": "dopamine reuptake", "settings": "relative to serotonin and norepinephrine uptake; cited from earlier work"}, "[6]": {"system": "histaminergic receptors", "settings": "in vitro; cited from earlier work"}},
  "data": [
    {"smiles": "COc1ccc(C(CN(C)C)C2(O)CCCCC2)cc1", "note": "(centres unmarked) [venlafaxine, 1-[2-(dimethylamino)-1-(4-methoxyphenyl)ethyl] cyclohexanol]", "values": [
      {"measurement": "inhibitory activity on monoamine oxidase", "setting": "[1]", "value": "no inhibitory activity"},
      {"measurement": "mean weight decreases and mean percent decreases from baseline, significance", "setting": "[2]; beginning at week 1", "value": "consistent statistically significant mean weight decreases and mean percent decreases from baseline beginning at week 1"},
      {"measurement": "mean percent decrease from baseline (body weight)", "setting": "[2]; week 10, venlafaxine up to 225 mg/day", "value": 3.6, "unit": "%"},
      {"measurement": "mean decrease in body weight", "setting": "[2]; week 10, venlafaxine up to 225 mg/day, change from baseline", "value": 7.5, "unit": "lb"},
      {"measurement": "inhibition of norepinephrine uptake", "setting": "[3]", "value": "potent inhibition"},
      {"measurement": "affinity for adrenergic receptors", "setting": "[4]", "value": "virtually no affinity"},
      {"measurement": "inhibition of dopamine reuptake", "setting": "[5]", "value": "To a lesser degree, venlafaxine also inhibits dopamine reuptake"},
      {"measurement": "affinity for histaminergic receptors", "setting": "[6]", "value": "virtually no affinity"}
    ]}
  ]
}
